Experimental data as given in patent publication US9688681B2, “Heterocyclic compounds as pest control agents” (BAYER CROPSCIENCE AKTIENGESELLSCHAFT, priority 2013, dated 2017).
Where two headings read alike, the source gives them in different places.

Tests used:
[1] = log P by HPLC on reversed-phase C18 columns (OECD Guideline 117); format: physicochemical; settings: for chromatographic logP: reversed-phase C18 HPLC column
[2] = test system: green peach aphid (Myzus persicae); assay: Myzus persicae spray test on Chinese cabbage leaf discs; format: in vivo; settings: application rate 500 g/ha, after 6 days
Description: Discs of Chinese cabbage leaves (Brassica pekinensis) infested by all stages of the green peach aphid (Myzus persicae) are sprayed with an active ingredient formulation of the desired concentration.

[3] = test system: green peach aphid (Myzus persicae); settings: application rate 20 ppm, after 6 days, bell pepper plants sprayed to runoff
Method: Myzus persicae—Spray Test
Solvent: 7 parts by weight of dimethylformamide
Emulsifier: alkylaryl polyglycol ether
To produce an appropriate active ingredient formulation, 1 part by weight of active ingredient is dissolved using the specified parts by weight of solvent and made up with water containing an emulsifier concentration of 1000 ppm until the desired concentration is attained. To produce further test concentrations, the preparation is diluted with emulsifier-containing water. If the addition of ammonium salts or/and penetrants is required, these are each added in a concentration of 1000 ppm to the formulation solution.
After 6 days, the kill in % is determined. 100% means that all the aphids have been killed; 0% means that no aphids have been killed.

[4] = pH 2.7, HPLC RP C18, acidic range pH 2.7, 0.1% aqueous formic acid/acetonitrile, read-out: logP[a]
[5] = pH 7.8, HPLC RP C18, neutral range pH 7.8, 0.001 molar aqueous ammonium hydrogencarbonate/acetonitrile, read-out: logP[b]
[6] = HPLC RP C18, acidic range pH 2.7, 0.1% aqueous formic acid/acetonitrile
[7] = HPLC RP C18, neutral range pH 7.8, 0.001 molar aqueous ammonium hydrogencarbonate/acetonitrile

With `CCOC(=O)c1cnn(-c2cccnc2)c1N` [(IIIa-1). HCOOH, ethyl 5-amino-1-(pyridin-3-yl)-1H-pyrazole-4-carboxylate] the chromatographic logP [1, 4] was 1.18 and the chromatographic logP [1, 5] was 1.27.
With `CCOC(=O)c1cnn(-c2cccnc2)c1N` [IIIa-1, Ethyl 5-amino-1-(pyridin-3-yl)-1H-pyrazole-4-carboxylate] the “logP[a]” value [1, 6] was 1.10.
With `CCOC(=O)c1cnn(-c2cncnc2)c1N` [IIIa-2, Ethyl 5-amino-1-(pyrimidin-5-yl)-1H-pyrazole-4-carboxylate] the chromatographic logP [1, 4] was 1.16 and the chromatographic logP [1, 5] was 1.12.
With `CCOC(=O)c1cnn(-c2ccnnc2)c1N` [IIIa-3, Ethyl 5-amino-1-pyridazin-4-yl-pyrazole-4-carboxylate] the chromatographic logP [1, 4] was 1.12 and the chromatographic logP [1, 5] was 1.12.
Work on `CCOC(=O)c1cn(-c2cccnc2)nc1N` [IIIb-1, Ethyl 3-amino-1-(pyridin-3-yl)-1H-pyrazole-4-carboxylate] yielded a chromatographic logP [1, 4] of 1.12 and a chromatographic logP [1, 5] of 1.32.
With `CCOC(=O)c1cn(-c2cncnc2)nc1N` [IIIb-2, ethyl 3-amino-1-(pyrimidin-5-yl)-1H-pyrazole-4-carboxylate] the chromatographic logP [1, 4] was 1.12 and the chromatographic logP [1, 5] was 1.08.
For `CCOC(=O)c1cn(-c2ccnnc2)nc1N` [IIIb-3, ethyl 3-amino-1-pyridazin-4-yl-pyrazole-4-carboxylate], the chromatographic logP [1, 4] was 0.9 and the chromatographic logP [1, 5] was 0.94.
With `CCNC(=O)c1cnn(-c2cccnc2)c1N` [IIa-1-1, 5-Amino-N-ethyl-1-(pyridin-3-yl)-1H-pyrazole-4-carboxamide] the chromatographic logP [1, 4] was 0.5 and the chromatographic logP [1, 5] was 0.56.
Work on `CCNC(=O)c1cn(-c2cccnc2)nc1N` [IIb-1-1, 3-Amino-N-ethyl-1-(pyridin-3-yl)-1H-pyrazole-4-carboxamide] yielded a chromatographic logP [1, 4] of 0.45 and a chromatographic logP [1, 5] of 0.77.
`CC(C)NC(=O)c1cn(-c2cccnc2)nc1N` [IIb-1-2, 3-Amino-N-isopropyl-1-(pyridin-3-yl)-1H-pyrazole-4-carboxamide] gave a chromatographic logP [1, 4] of 0.82 and a chromatographic logP [1, 5] of 1.05.
In the case of `CNC(=O)c1cnn(-c2cncnc2)c1N` [IIb-2-1, 5-Amino-N-methyl-1-(pyrimidin-5-yl)-1H-pyrazole-4-carboxamide], the chromatographic logP [1, 4] is reported as 0.18 and the chromatographic logP [1, 5] is reported as -0.01.
Compound `CC(C)NC(=O)c1cn(-c2ccnnc2)nc1N` [IIb-3-1, 3-Amino-N-isopropyl-1-pyridazin-4-yl-pyrazole-4-carboxamide] has a chromatographic logP [1, 4] of 0.74 and a chromatographic logP [1, 5] of 0.74.
`C(=NNc1cccnc1)c1ccccc1` [VII-1, Benzaldehyde pyridin-3-yl hydrazone] showed a chromatographic logP [1, 4] of 0.86 and a chromatographic logP [1, 5] of 2.22.
`CCOC(=O)C(C#N)=CN(N=Cc1ccccc1)c1cccnc1` [VIII-1, Ethyl 3-[2-benzylidene-1-(pyridin-3-yl)hydrazino]-2-cyanoacrylate] gave a chromatographic logP [1, 4] of 2.54 and a chromatographic logP [1, 5] of 2.48.
In the case of `CC(C)n1cnc2c(cnn2-c2cccnc2)c1=O` [compound 1], the “logP[a]” value ([1]; pH 2.7) is reported as 1.31.
In the case of `O=c1c2cnn(-c3cccnc3)c2ncn1-c1ccccc1` [compound 2], the “efficacy (aphids killed)” value [2] is reported as 90% and the “logP[a]” value [1, 6] is reported as 1.57.
With `O=c1c2cnn(-c3cccnc3)c2ncn1CC(F)(F)F` [compound 3] the “efficacy (aphids killed)” value [2] was 100% and the “logP[a]” value ([1]; pH 2.7) was 1.48.
For `O=c1c2cnn(-c3cccnc3)c2ncn1-c1ccc(Cl)cc1` [compound 4], the “efficacy (aphids killed)” value [2] was 90% and the “logP[a]” value [1, 6] was 2.04.
For `O=c1c2cnn(-c3cccnc3)c2ncn1Cc1ncccn1` [compound 5], the “efficacy (aphids killed)” value [2] was 90%, the “logP[a]” value ([1]; pH 2.7) was 0.80 and the “logP[b]” value ([1]; pH 7.8) was 0.91.
`CCn1cnc2c(cnn2-c2cccnc2)c1=O` [compound 6, 5-Ethyl-1-(pyridin-3-yl)-1,5-dihydro-4H-pyrazolo[3,4-d]pyrimidin-4-one] showed a chromatographic logP [1, 4] of 0.98 and a chromatographic logP [1, 5] of 1.15.
With `Cn1cnc2c(cnn2-c2cccnc2)c1=O` [compound 7] the “logP[a]” value ([1]; pH 2.7) was 0.58 and the “logP[b]” value ([1]; pH 7.8) was 0.82.
`Cn1cnc2c(cnn2-c2cncnc2)c1=O` [compound 8, 5-Methyl-1-(pyrimidin-5-yl)-1,5-dihydro-4H-pyrazolo[3,4-d]pyrimidin-4-one] showed a chromatographic logP [1, 4] of 0.55 and a chromatographic logP [1, 5] of 0.55.
For `CCn1cnc2nn(-c3cccnc3)cc2c1=O` [compound 9], the “logP[a]” value [1, 6] was 0.80.
With `O=c1c2cn(-c3cccnc3)nc2ncn1-c1ccccc1` [compound 10] the “efficacy (aphids killed)” value [2] was 90% and the “logP[a]” value [1, 6] was 1.40.
For `O=c1c2cn(-c3ccccc3)nc2ncn1Cc1ncccn1` [compound 11], the “efficacy (aphids killed)” value [2] was 100% and the “logP[a]” value [1, 6] was 0.63.
With `O=c1c2cn(-c3cccnc3)nc2ncn1CC(F)(F)F` [compound 12] the “efficacy (aphids killed)” value [2] was 100% and the “logP[a]” value [1, 6] was 1.27.
With `CC(C)n1cnc2nn(-c3cccnc3)cc2c1=O` [compound 15, 5-Isopropyl-2-(pyridin-3-yl)-2,5-dihydro-4H-pyrazolo[3,4-d]pyrimidin-4-one] the “efficacy (aphids killed)” value [2] was 100%, the chromatographic logP [1, 4] was 1.06 and the chromatographic logP [1, 5] was 1.12.
In the case of `CCn1cnc2nn(-c3cccnc3)cc2c1=O` [compound 16, 5-Ethyl-2-(pyridin-3-yl)-2,5-dihydro-4H-pyrazolo[3,4-d]pyrimidin-4-one], the “efficacy (aphids killed)” value [2] is reported as 100%, the chromatographic logP [1, 4] is reported as 0.7 and the chromatographic logP [1, 5] is reported as 0.84.
With `O=c1c2cn(-c3cccnc3)nc2ncn1CC1CCCO1` (stereo not shown) [compound 17] the “efficacy (aphids killed)” value [2] was 100%, the “logP[a]” value [1, 6] was 1.07 and the “logP[b]” value [1, 7] was 1.12.
In the case of `Cn1cnc2nn(-c3cccnc3)cc2c1=O` [compound 18], the “efficacy (aphids killed)” value [2] is reported as 100%, the “logP[a]” value [1, 6] is reported as 0.45 and the “logP[b]” value [1, 7] is reported as 0.52.
With `CCOC(=O)Cn1cnc2nn(-c3cccnc3)cc2c1=O` [compound 19] the “efficacy (aphids killed)” value [2] was 100%, the “logP[a]” value [1, 6] was 0.98 and the “logP[b]” value [1, 7] was 1.09.
In the case of `CC(c1ccccn1)n1cnc2nn(-c3cccnc3)cc2c1=O` (stereo not shown) [compound 21], the “efficacy (aphids killed)” value [2] is reported as 90%, the “logP[a]” value [1, 6] is reported as 1.13 and the “logP[b]” value [1, 7] is reported as 1.32.
In the case of `CN(C)C(=O)Cn1cnc2nn(-c3cccnc3)cc2c1=O` [compound 22], the “efficacy (aphids killed)” value [2] is reported as 90%, the “logP[a]” value [1, 6] is reported as 0.47 and the “logP[b]” value [1, 7] is reported as 0.51.
With `O=c1c2cn(-c3cccnc3)nc2ncn1C1CC1` [compound 23] the “efficacy (aphids killed)” value [2] was 100%, the “logP[a]” value [1, 6] was 0.79 and the “logP[b]” value [1, 7] was 0.83.
For `CC(F)(F)Cn1cnc2nn(-c3cccnc3)cc2c1=O` [compound 24], the “efficacy (aphids killed)” value [2] was 100%, the “logP[a]” value [1, 6] was 1.19 and the “logP[b]” value [1, 7] was 1.21.
For `O=c1c2cn(-c3cccnc3)nc2ncn1CC(F)F` [compound 25], the “efficacy (aphids killed)” value [2] was 100%, the “logP[a]” value [1, 6] was 0.91 and the “logP[b]” value [1, 7] was 0.96.
With `CSCCn1cnc2nn(-c3cccnc3)cc2c1=O` [compound 27] the “efficacy (kill)” value [3] was 90%, the “logP[a]” value [1, 6] was 1.13 and the “logP[b]” value [1, 7] was 1.19.
In the case of `Cc1nc2nn(-c3cccnc3)cc2c(=O)n1C(C)C` [compound 28], the “efficacy (aphids killed)” value [2] is reported as 90%, the “logP[a]” value [1, 6] is reported as 1.28 and the “logP[b]” value [1, 7] is reported as 1.35.
For `CCn1c(C)nc2nn(-c3cccnc3)cc2c1=O` [compound 29, 5-Ethyl-6-methyl-2-(pyridin-3-yl)-2,5-dihydro-4H-pyrazolo[3,4-d]pyrimidin-4-one], the “efficacy (aphids killed)” value [2] was 90%, the chromatographic logP [1, 4] was 0.93 and the chromatographic logP [1, 5] was 1.03.
With `N#CC1(n2cnc3nn(-c4cccnc4)cc3c2=O)CC1` [compound 30] the “efficacy (aphids killed)” value [2] was 100%, the “logP[a]” value [1, 6] was 0.82 and the “logP[b]” value [1, 7] was 0.85.
For `CSCC(C)n1cnc2nn(-c3cccnc3)cc2c1=O` (stereo not shown) [compound 31], the “efficacy (kill)” value [3] was 95%, the “logP[a]” value [1, 6] was 1.36 and the “logP[b]” value [1, 7] was 1.40.
Work on `CCn1c(C(F)(F)F)nc2nn(-c3cccnc3)cc2c1=O` [compound 32, 5-Ethyl-2-(pyridin-3-yl)-6-(trifluoromethyl)-2,5-dihydro-4H-pyrazolo[3,4-d]pyrimidin-4-one] yielded a chromatographic logP [1, 4] of 2.07 and a chromatographic logP [1, 5] of 2.06.
In the case of `O=c1c2cn(-c3cccnc3)nc2ncn1CC1CC1` [compound 33], the “efficacy (aphids killed)” value [2] is reported as 100%, the “logP[a]” value [1, 6] is reported as 1.23 and the “logP[b]” value [1, 7] is reported as 1.27.
With `CC(C)(C)Cn1cnc2nn(-c3cccnc3)cc2c1=O` [compound 34] the “efficacy (aphids killed)” value [2] was 100%, the “logP[a]” value [1, 6] was 1.70 and the “logP[b]” value [1, 7] was 1.71.
In the case of `CC(C)n1nnc2nn(-c3cccnc3)cc2c1=O` [compound 36, 3-Isopropyl-6-(3-pyridyl)pyrazolo[3,4-d]triazin-4-one], the “efficacy (aphids killed)” value [2] is reported as 90%, the chromatographic logP [1, 4] is reported as 1.72 and the chromatographic logP [1, 5] is reported as 1.7.
With `CC(C)n1cnc2nn(-c3cncnc3)cc2c1=O` [compound 37] the “efficacy (aphids killed)” value [2] was 100%, the “logP[a]” value ([1]; pH 2.7) was 0.93 and the “logP[b]” value ([1]; pH 7.8) was 0.92.
For `CC(C)n1cnc2nn(-c3ccnnc3)cc2c1=O` [compound 38, 5-Isopropyl-2-pyridazin-4-yl-pyrazolo[3,4-d]pyrimidin-4-one], the “efficacy (aphids killed)” value [2] was 90%, the chromatographic logP [1, 4] was 0.85 and the chromatographic logP [1, 5] was 0.85.
With `Cc1ccc(-n2cnc3nn(-c4cccnc4)cc3c2=O)cc1` [compound 39] the “efficacy (aphids killed)” value [2] was 100%, the “logP[a]” value [1, 6] was 1.73 and the “logP[b]” value [1, 7] was 1.73.
